# Active and inactive are the calls of the source. The calls are words filed in the database; no cut-off is given here.
# What was measured:
# [1] = biological target: T1, N-terminal Xaa-Pro-Lys N-methyltransferase 1 (Homo sapiens) (UniProt Q9BV86); assay: Inhibition of NTMT1 in human HCT116 cells assessed as decrease in me3-SPK level at 1 mM incubated for 3 days by Western blot analysis relative to control; type: cell-based; conditions: HCT-116, time 3.0 day
# T1 sequence (whole entry): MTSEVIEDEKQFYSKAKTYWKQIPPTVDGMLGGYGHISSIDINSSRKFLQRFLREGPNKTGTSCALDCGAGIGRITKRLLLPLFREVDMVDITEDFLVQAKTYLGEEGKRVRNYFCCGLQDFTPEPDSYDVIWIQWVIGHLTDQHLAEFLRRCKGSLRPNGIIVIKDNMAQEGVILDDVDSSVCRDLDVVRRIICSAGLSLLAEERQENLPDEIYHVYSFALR
# [2] = biological target: T1, N-terminal Xaa-Pro-Lys N-methyltransferase 1 (Homo sapiens); assay: Inhibition of NTMT1 in human HCT116 cells assessed as decrease in me3-SPK level at 100 uM incubated for 3 days by Western blot analysis relative to control; type: cell-based; conditions: HCT-116, time 3.0 day
# [3] = biological target: T2, N-terminal Xaa-Pro-Lys N-methyltransferase 1 (Homo sapiens, UniProt Q9BV86); assay: Inhibition of recombinant human N-terminal His6-tagged NTMT1 (1 to 222 residues) expressed in Escherichia coli BL21-CodonPlus(DE3)-RIL using GPKRIA peptide and SAM as substrate pre-incubated for 10 mins in presence of SAM followed by substrate addition by SAHH coupled fluorescence assay
# T2 sequence (Q9BV86 whole entry): T1 sequence (whole entry)
# Trypsin = Trypsin (Homo sapiens, UniProt P07477+P07478+P35030); assay: Stability of compound assessed as trypsin (unknown origin) mediated compound hydrolysis at 10 uM incubated for 1 hr by MALDI-MS analysis; type: ADME, protein assay
# [4] = biological target: T1, N-terminal Xaa-Pro-Lys N-methyltransferase 1 (Homo sapiens); assay: Inhibition of NTMT1 in human HCT116 cells assessed as decrease in me3-SPK level at 300 uM incubated for 3 days by Western blot analysis relative to control; type: cell-based; conditions: HCT-116, time 3.0 day
# [5] = biological target: T3, Histone-lysine N-methyltransferase SETD7 (Homo sapiens) (UniProt Q8WTS6); assay: Inhibition of His-tagged SETD7 (unknown origin) at 100 uM using H3-21 peptide as substrate preincubated for 10 mins in presence of SAM followed by substrate addition by SAHH-coupled fluorescence assay relative to control
# T3 sequence (whole entry): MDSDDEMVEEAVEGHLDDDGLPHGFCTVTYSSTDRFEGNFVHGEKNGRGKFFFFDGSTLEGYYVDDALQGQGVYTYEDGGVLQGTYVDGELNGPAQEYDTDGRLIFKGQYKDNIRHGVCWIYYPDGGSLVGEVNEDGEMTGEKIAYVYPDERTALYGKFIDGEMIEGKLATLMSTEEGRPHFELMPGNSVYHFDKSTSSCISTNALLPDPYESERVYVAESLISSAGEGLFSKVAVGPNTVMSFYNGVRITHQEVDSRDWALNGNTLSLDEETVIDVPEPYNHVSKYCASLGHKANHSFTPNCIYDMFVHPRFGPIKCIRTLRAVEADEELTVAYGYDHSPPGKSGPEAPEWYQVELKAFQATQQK
# Trypanosoma brucei = assay: Inhibition of Trypanosoma brucei N-terminal His6-tagged PRMT7 expressed in Escherichia coli BL21-CodonPlus(DE3)-RIL at 100 uM using H4-21 peptide as substrate preincubated for 10 mins in presence of SAM followed by substrate addition by SAHH-coupled fluorescence assay relative to control
# [6] = Selectivity for recombinant human N-terminal His6-tagged NTMT1 (1 to 222 residues) expressed in Escherichia coli BL21-CodonPlus(DE3)-RIL over Trypanosoma brucei N-terminal His6-tagged PRMT7 expressed in Escherichia coli BL21-CodonPlus(DE3)-RIL
# [7] = biological target: Protein arginine N-methyltransferase 3 (Homo sapiens) (UniProt O60678); assay: Inhibition of PRMT3 (unknown origin) at 100 uM relative to control
# Sequence of Protein arginine N-methyltransferase 3 (Homo sapiens) (O60678 2-531 limits assumed): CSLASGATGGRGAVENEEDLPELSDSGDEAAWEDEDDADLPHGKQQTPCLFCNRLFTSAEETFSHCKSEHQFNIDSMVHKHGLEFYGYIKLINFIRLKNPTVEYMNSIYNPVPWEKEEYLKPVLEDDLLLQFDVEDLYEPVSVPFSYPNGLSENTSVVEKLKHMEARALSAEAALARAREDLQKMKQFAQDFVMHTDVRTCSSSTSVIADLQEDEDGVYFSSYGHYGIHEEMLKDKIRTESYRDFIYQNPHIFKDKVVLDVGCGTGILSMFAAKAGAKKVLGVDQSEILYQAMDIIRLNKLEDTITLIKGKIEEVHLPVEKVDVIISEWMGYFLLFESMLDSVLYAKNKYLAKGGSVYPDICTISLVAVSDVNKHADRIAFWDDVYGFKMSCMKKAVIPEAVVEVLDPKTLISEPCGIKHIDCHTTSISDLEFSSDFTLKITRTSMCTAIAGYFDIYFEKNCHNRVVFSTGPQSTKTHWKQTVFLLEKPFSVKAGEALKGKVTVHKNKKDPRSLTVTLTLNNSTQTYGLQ
# [8] = biological target: T2, N-terminal Xaa-Pro-Lys N-methyltransferase 1; assay: Inhibition of NTMT1 in human HCT116 cells assessed as decrease in me3-SPK level incubated for 3 days by Western blot analysis; type: cell-based, HCT-116
# [9] = biological target: T4, Histone-lysine N-methyltransferase EHMT2 (Homo sapiens) (UniProt Q96KQ7); assay: Inhibition of human His-tagged G9a (913 to 1193 residues) expressed in Escherichia coli BL21-CodonPlus(DE3)-RIL at 100 uM using H3-21 peptide as substrate preincubated for 10 mins in presence of SAM followed by substrate addition by SAHH-coupled fluorescence assay relative to control
# T4 sequence (whole entry): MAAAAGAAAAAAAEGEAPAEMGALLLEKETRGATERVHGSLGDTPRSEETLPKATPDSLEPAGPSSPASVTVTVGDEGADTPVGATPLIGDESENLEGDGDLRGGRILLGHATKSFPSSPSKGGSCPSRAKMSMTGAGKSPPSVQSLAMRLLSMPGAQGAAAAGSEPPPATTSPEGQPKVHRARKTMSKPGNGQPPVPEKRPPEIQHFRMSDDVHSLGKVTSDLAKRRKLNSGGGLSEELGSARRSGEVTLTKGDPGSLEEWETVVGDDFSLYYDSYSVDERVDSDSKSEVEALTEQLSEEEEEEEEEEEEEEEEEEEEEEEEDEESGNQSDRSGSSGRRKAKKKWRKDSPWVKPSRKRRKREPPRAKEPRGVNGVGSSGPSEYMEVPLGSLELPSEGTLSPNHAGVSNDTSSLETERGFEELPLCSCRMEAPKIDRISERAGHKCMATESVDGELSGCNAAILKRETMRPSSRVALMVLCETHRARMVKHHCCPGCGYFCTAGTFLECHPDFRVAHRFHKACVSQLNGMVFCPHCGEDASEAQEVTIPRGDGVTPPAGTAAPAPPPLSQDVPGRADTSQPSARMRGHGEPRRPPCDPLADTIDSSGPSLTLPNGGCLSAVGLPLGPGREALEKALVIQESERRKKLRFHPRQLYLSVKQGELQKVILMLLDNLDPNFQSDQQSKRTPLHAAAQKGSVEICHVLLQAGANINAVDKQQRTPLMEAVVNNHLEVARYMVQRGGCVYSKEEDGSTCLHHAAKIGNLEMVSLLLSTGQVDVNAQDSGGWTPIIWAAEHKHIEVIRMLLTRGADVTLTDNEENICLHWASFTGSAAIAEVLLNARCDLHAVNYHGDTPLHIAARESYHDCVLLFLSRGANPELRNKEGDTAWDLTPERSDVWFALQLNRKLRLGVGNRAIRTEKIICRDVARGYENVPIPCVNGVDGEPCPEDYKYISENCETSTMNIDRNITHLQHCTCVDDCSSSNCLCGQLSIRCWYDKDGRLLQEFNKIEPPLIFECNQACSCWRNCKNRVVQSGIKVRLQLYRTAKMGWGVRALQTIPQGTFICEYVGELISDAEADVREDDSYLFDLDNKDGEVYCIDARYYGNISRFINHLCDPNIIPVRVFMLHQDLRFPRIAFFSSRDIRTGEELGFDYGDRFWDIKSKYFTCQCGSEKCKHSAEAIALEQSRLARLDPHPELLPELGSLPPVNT
# Homo sapiens [10] = species on record: Homo sapiens; assay: Selectivity for recombinant human N-terminal His6-tagged NTMT1 (1 to 222 residues) expressed in Escherichia coli BL21-CodonPlus(DE3)-RIL over PRMT1 (unknown origin)
# [11] = biological target: T1, N-terminal Xaa-Pro-Lys N-methyltransferase 1 (Homo sapiens); assay: Non-competitive inhibition of recombinant human N-terminal His6-tagged NTMT1 (1 to 222 residues) expressed in Escherichia coli BL21-CodonPlus(DE3)-RIL using GPKRIA peptide and varying concentration of SAM as substrate pre-incubated for 10 mins in presence of SAM followed by fixed concentration of substrate addition and measured for 15 mins by SAHH coupled fluorescence assay; conditions: time 25.0 min
# Homo sapiens [12] = species on record: Homo sapiens; assay: Selectivity for recombinant human N-terminal His6-tagged NTMT1 (1 to 222 residues) expressed in Escherichia coli BL21-CodonPlus(DE3)-RIL over PRMT3 (unknown origin)
# Homo sapiens [13] = species on record: Homo sapiens; assay: Selectivity for recombinant human N-terminal His6-tagged NTMT1 (1 to 222 residues) expressed in Escherichia coli BL21-CodonPlus(DE3)-RIL over human His-tagged G9a (913 to 1193 residues) expressed in Escherichia coli BL21-CodonPlus(DE3)-RIL
# Homo sapiens [14] = species on record: Homo sapiens; assay: Selectivity for recombinant human N-terminal His6-tagged NTMT1 (1 to 222 residues) expressed in Escherichia coli BL21-CodonPlus(DE3)-RIL over SAHH (unknown origin)
# [15] = biological target: Adenosylhomocysteinase (Homo sapiens) (UniProt P23526); assay: Inhibition of SAHH (unknown origin) at 100 uM relative to control
# Sequence of Adenosylhomocysteinase (Homo sapiens) (P23526 2-432 limits assumed): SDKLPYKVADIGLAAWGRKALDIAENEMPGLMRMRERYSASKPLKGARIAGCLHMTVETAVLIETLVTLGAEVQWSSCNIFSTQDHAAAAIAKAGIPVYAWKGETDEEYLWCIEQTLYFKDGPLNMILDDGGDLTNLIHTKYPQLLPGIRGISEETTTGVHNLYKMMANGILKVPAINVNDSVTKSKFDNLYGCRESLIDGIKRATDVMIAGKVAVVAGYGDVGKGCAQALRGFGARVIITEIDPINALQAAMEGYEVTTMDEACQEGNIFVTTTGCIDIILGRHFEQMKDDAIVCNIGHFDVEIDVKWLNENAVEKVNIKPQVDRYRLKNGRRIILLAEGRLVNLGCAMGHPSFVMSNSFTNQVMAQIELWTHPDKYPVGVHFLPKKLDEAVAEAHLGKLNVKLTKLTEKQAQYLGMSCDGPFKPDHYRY
# [16] = biological target: Protein arginine N-methyltransferase 1 (Homo sapiens) (UniProt Q99873); assay: Inhibition of PRMT1 (unknown origin) at 100 uM using H4-21 peptide as substrate preincubated for 10 mins in presence of SAM followed by substrate addition by SAHH-coupled fluorescence assay relative to control
# Sequence of Protein arginine N-methyltransferase 1 (Homo sapiens) (Q99873 whole entry, looked up, the tested form may be a part): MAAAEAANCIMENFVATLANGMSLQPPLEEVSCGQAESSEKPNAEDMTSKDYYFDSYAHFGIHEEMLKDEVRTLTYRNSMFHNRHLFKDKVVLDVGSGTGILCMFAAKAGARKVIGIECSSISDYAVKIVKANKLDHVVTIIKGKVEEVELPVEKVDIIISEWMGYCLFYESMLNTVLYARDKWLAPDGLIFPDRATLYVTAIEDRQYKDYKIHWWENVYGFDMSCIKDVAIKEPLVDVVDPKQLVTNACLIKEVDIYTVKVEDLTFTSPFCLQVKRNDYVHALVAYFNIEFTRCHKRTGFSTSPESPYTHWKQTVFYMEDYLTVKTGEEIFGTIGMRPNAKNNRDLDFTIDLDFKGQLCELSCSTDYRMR
# Homo sapiens [17] = species on record: Homo sapiens; assay: Selectivity for recombinant human N-terminal His6-tagged NTMT1 (1 to 222 residues) expressed in Escherichia coli BL21-CodonPlus(DE3)-RIL over His-tagged SETD7 (unknown origin)
Compound,inhibition [1] [%],inhibition [2] [%],IC50 [3] [µM],Stabilty (Trypsin),inhibition [4] [%],further results
NCCCC[C@H](NC(=O)[C@@H]1CCCN1C(=O)Cc1cccc2ccccc12)C(=O)Nc1ccccc1,79,0,1.1,,55,
NCCCC[C@H](NC(=O)[C@@H]1CCCN1C(=O)Cc1cccc2ccccc12)C(=O)Nc1cccc2ccccc12,47,0,0.97,,1,
N=C(N)NCCC[C@H](NC(=O)[C@H](CCCCN)NC(=O)[C@@H]1CCCN1C(=O)Cc1cccc2ncccc12)C(N)=O,,,> 100,,,

# Now those with a lower IC50 [3], led by results:
inhibition [1] [%],inhibition [2] [%],IC50 [3] [µM],Stabilty (Trypsin),inhibition [4] [%],Compound,further results
100,0,0.47,Stable,48,CN(C(=O)[C@H](CCCCN)NC(=O)[C@@H]1CCCN1C(=O)Cc1cccc2ccccc12)[C@@H](CCCCN)C(N)=O,
52,3,0.1,Unstable,10,N=C(N)NCCC[C@H](NC(=O)[C@H](CCCCN)NC(=O)[C@@H]1CCCN1C(=O)Cc1cccc2ccccc12)C(N)=O,inhibition [5]: < 50%; inhibition (Trypanosoma brucei): < 50%; Selectivity ratio [6]: > 1000; inhibition [7]: < 50%; IC50 [8]: 1000 µM; inhibition [9]: < 50%; Selectivity ratio (Homo sapiens [10]): > 1000; inhibition [11]: Active; Selectivity ratio (Homo sapiens [12]): > 1000; Selectivity ratio (Homo sapiens [13]): > 1000; Selectivity ratio (Homo sapiens [14]): > 1000; inhibition [15]: < 50%; inhibition [16]: < 50%; Selectivity ratio (Homo sapiens [17]): > 1000
